This is an account of results in patent publication US5614370A, “Assay to identify human C5a antagonists and agonists” (Merck & Co., Inc., priority 1994, dated 1997).

“Also recorded” adds a separate entry of the source. Read-outs that look alike come from different tables or passages of the source. Non-standard residues stand in square brackets, D forms with d. Residues, ends and D or L forms follow the SMILES beside them. 1Nal = N[C@@H](Cc1cccc2ccccc12)C(=O)O; NMeF = CN[C@@H](Cc1ccccc1)C(=O)O; Cha = N[C@@H](CC1CCCCC1)C(=O)O; dCha = N[C@H](CC1CCCCC1)C(=O)O

The IC50 is the point on the concentration scale where inhibition reaches its midpoint. One may read the Ki as the dissociation constant of the complex between target and ligand, obtained from inhibition or displacement. Higher therefore signals lower affinity.

Test [1] concerns human neutrophils. Put plainly: Ligand induced Ca2+ flux (Indo-1 fluorescence). The class given is cell-based. As to conditions: FIG. 5B. As to the method: FIG. 5A and 5B. Degranulation and Ca^2+ responses to the hexapeptides. […] The ED50 's for the degranulation are: C5a, 0.5 nM; C028, 0.2 μM; C026, 1 μM. C5a, maximally, released 57% of the total cellular content of MPO. The ability of these molecules to elicite a Ca^2+ -flux is shown in B. The concentrations used for C028 (10 μM), C026 (10 μM), C061 (100 μM) are those which produce a maximal flux. A saturating concentration was also used for C5a (1 nM).
Ligand induced Ca^2+ fluxes were measured by following the change in Indo-1 induced fluorescence on a FACS analyzer as previously described (Van Riper, G., Siciliano, S. J., Fischer, P. A., Meurer, R., Springer, M. S. and Rosen, H. (1993) J. Exp. Med. 177, 851-856.).
FIG. 5B compares the maximal effects of each peptide (10-100 μM) with the response induced by C5a (1 nM).

Test [2] addresses T1, C5a receptor (Homo sapiens, UniProt P21730).
T1 construct: followed by a 20 μL aliquot of neutrophil membrane; endogenous in cells
T1 sequence (P21730 1-350): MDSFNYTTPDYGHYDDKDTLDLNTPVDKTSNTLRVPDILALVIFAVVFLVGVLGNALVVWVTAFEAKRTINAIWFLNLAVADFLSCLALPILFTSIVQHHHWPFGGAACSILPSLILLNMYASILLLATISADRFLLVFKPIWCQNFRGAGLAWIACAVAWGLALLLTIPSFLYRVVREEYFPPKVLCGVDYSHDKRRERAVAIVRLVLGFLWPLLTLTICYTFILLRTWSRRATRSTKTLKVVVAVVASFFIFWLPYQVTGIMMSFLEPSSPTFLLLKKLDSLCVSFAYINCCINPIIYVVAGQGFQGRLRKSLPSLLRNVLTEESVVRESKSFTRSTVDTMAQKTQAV
Put plainly: Competition binding against 125I-labeled intact C5a on human neutrophil (PMN) membranes. An excerpt:
The affinity of these peptides is shown, for example, by radiolabeling intact C5a, and using the unlabeled peptide to compete the labeled C5a from C5a receptor binding sites on cellular membranes. Preparations of polymorphonuclear leukocytes (PMN's) are known to express the C5a receptor, (inhibition of the chemotactic response to C5a of this type of cell is one desirable utility for compounds identified by the instant assay). One method for preparing these membranes is described by Rollins, T. E. et al., [J. Biol. Chem. 264:520-526 (1988); see also U.S. Pat. No. 5,177,190, herein incorporated by reference as a method for isolating and purifying C5a receptor]. Briefly, this involves isolating PMN's in large quantity, disrupting these cells and obtaining the membrane fraction by centrifugation. Protein assay of the membrane preparation allows for standardization of the amount of protein added in any set of membrane binding experiments.
In FIG. 1, unlabeled C013 is used to compete with ^125 I-labeled C5a. […] In FIG. 2, the C013 is ^125 I labeled. Unlabeled C5a and unlabeled C013 are each used to compete the labeled C013 from C5a binding sites on the membranes. […] In FIG. 3a, ^125 I-C5a is competed from its binding site by unlabeled C064 and unlabeled, natural C5a (as opposed to recombinant C5a, which, however, may also obviously may be used for these purposes). […] In FIG. 3b, the inverse experiment is shown, wherein ^125 I-C064 is displaced by unlabeled C064 and unlabeled nC5a.
Hexapeptides within this class differing only at position X have similar affinities for the C5a receptor. As measured in competition binding experiments against ^125 I-C5a on human neutrophil membranes their IC50 's varied by only a factor of 3, from 25 to 80 nM (Table II):
^2 Binding experiments were carried out with human neutrophil
Binding is initiated by an addition of 20 μL of PMN membrane (typically 0.5 μg of protein) to each tube. After incubation for 90 min. at room temperature 2 ml of 0.05 M HEPES, pH 7.2, containing 0.5% BSA are added to the tube, the contents vortexed and filtered over a Whatman GF/C filter which has been soaked in 0.3% polyethylenimine. An additional 2 ml of buffer are added to the tube and used to wash the filter. All of the test samples are dissolved in DMSO, another water miscible organic solvent, or in an aqueous solvent. Non-specific background was determined by inclusion of a 100-fold excess of unlabeled C5a.
The percent inhibition is calculated according to the following formula: [formula]
Iodination of C5a was carded out with the use of chloramine T. (Rollins, T.E., and Springer, M.S. (1985) J. Biol. Chem. 260, 7157-7160). […] Concentrations of C5a were determined by amino acid analysis and by RIA (Amersham Corp.). Membranes were prepared from human PMN as described by Rollins, T.E., Sciliano, S and Springer, M.S., J. Biol Chem 264 520-526 (1988).

Where [3] appears, read: maximal effects, peptide 10-100 μM vs 1 nM C5a.
[4] abbreviates: Table II, human neutrophil membranes, competition against 125I-C5a, read-out: Binding IC50.

As for `CN[C@@H](Cc1ccccc1)C(=O)N[C@@H](CCCCN)C(=O)N1CCC[C@H]1C(=O)N[C@H](CC1CCCCC1)C(=O)N[C@@H](Cc1c[nH]c2ccccc12)C(=O)N[C@H](CCCNC(=N)N)C(=O)O` [C089], the “Ca2+ response in words” value in test [1] (setting [3]) is recorded as “fails to stimulate a detectable change in Ca^2+ level”. Also, the “binding affinity in words” value in test [2] was “excellent ability to inhibit C5a binding”.

Turning to `CN[C@@H](Cc1ccccc1)C(=O)N[C@@H](CCCCN)C(=O)N1CCC[C@H]1C(=O)N[C@H](CC1CCCCC1)C(=O)N[C@@H](Cc1cccc2ccccc12)C(=O)N[C@H](CCCNC(=N)N)C(=O)O` [C061] (H-[NMeF]KP[dCha][1Nal][dR]-OH), in test [1], the “concentration which produces a maximal Ca2+ flux” value amounted to 100 µM. In addition, the “Ca2+ response in words” value in test [1] (setting [3]) is recorded as “only a very small increase in intracellular Ca^2+ levels; also recorded: small increase in the level of intracellular Ca^2+”. The IC50 in test [2] (setting [4]) turned out to be 80 nM.

For `CC(C)C[C@H](NC(=O)[C@H](CC1CCCCC1)NC(=O)[C@H](CC1CCCCC1)NC(=O)[C@H](C)NC(=O)[C@H](CCCCN)NC(=O)[C@H](Cc1ccccc1)NC(=O)[C@@H](N)Cc1ccc(O)cc1)C(=O)N[C@H](Cc1ccccc1)C(=O)N[C@@H](CCCNC(=N)N)C(=O)O` [C009, Tyr Phe Lys Ala Cha Cha Leu dPhe Arg] (H-YFKA[Cha][Cha]L[dF]R-OH), the inhibitory constant (Ki) in test [2] turned out to be 8 nM.

On to `CN[C@@H](Cc1ccccc1)C(=O)N[C@@H](CCCCN)C(=O)N1CCC[C@H]1C(=O)N[C@H](CC1CCCCC1)C(=O)N[C@@H](Cc1ccccc1)C(=O)N[C@H](CCCNC(=N)N)C(=O)O` [C026, NMeF--K--P-dCha-F-dR] (H-[NMeF]KP[dCha]F[dR]-OH), for which, in test [1], the “concentration which produces a maximal Ca2+ flux” value came to 10 µM. Further, the “Ca2+ response relative to C028 and C5a” value in test [1] (setting [3]) was 50%. Further, the IC50 in test [2] (setting [4]) was 50 nM.

In the case of `CN[C@@H](Cc1ccccc1)C(=O)N[C@@H](CCCCN)C(=O)N1CCC[C@H]1C(=O)N[C@H](CC1CCCCC1)C(=O)N[C@@H](CC1CCCCC1)C(=O)N[C@H](CCCNC(=N)N)C(=O)O` [C028, MePhe Lys Pro dCha Cha dArg] (H-[NMeF]KP[dCha][Cha][dR]-OH), in test [1], the “concentration which produces a maximal Ca2+ flux” value came to 10 µM. Besides, the “Ca2+ response in words” value in test [1] (setting [3]) is given as “comparable elevations in Ca^2+ level”. Also, the IC50 in test [2] (setting [4]) came out at 25 nM.

B1: C5a: 74 amino acid protein derived from the fifth component of serum complement during complement activation (protein, UniProt P01031 678-751, looked up)
C5a anaphylatoxin: TLQKKIEEIAAKYKHSVVKKCCYDGACVNNDETCEQRAARISLGPRCIKAFTECCVVASQLRANISHKDMQLGR
modifications: C5a anaphylatoxin
Take B1: the “Ca2+ response in words” value in test [1] (setting [3]) is reported as “comparable elevations in Ca^2+ level”. In addition, the half-inhibitory concentration (IC50) in test [2] (setting [4]) was found to be 0.03 nM; in test [2] (labeled ligand 125I-C5a, read-out: IC50 exhibited by the unlabeled ligand), 0.066 nM.
